{
  "source": "patent US20080219963A1",
  "about": "“Composition Containing Micronutrients With Improved Anti-Oxidant Activity And The Use Thereof” (ACTIMEX S.R.L. AREA Science Park, priority 2005, published 2008)",
  "key": {"[1]": {"test": "Antioxidant activity, ORAC (Oxygen Radical Absorbance Capacity) test", "format": "biochemical", "description": "Antioxidant activity was measured using the ORAC (Oxygen Radical Absorbance Capacity) test.\nThe test was based on measuring the inhibition induced by an antioxidant on the loss of activity of a fluorescent indicator, in the presence of oxidants.\nIn practice, given a fluorescent indicator (fluorescein) which loses its fluorescence due to the action of an oxidising agent (AAPH), antioxidant activity was evaluated in terms of maintenance of the fluorescence of the indicator over time, due to the ability of the antioxidant to counteract the action of the oxidising agent.\nAntioxidant activity was assessed by spectrofluorometric assay, measuring the decay of the fluorescence of the indicator over time (from 0 to 360 minutes). A measuring the fluorescence of the sodium fluorescein indicator was performed using a spectrofluorimeter at a wavelength of 515 nm.\nAntioxidant activity is expressed as the antioxidant power in relation to Trolox® at the same concentration of the samples."}, "[2]": {"test": "Solubility in buffered water at pH=7 after 24 hours (equilibrium)", "conditions": "pH 7, aqueous buffer, thermodynamic from solid", "method": "An excess of powder is added to buffered water at pH=7 until a precipitate is obtained."}, "[3]": {"conditions": "background statement; cited from earlier work"}},
  "data": [
    {"molecule": "CC1=C(/C=C/C(C)=C/C=C/C(C)=C/C=C/C=C(C)/C=C/C=C(C)/C=C/C2=C(C)C(=O)[C@@H](O)CC2(C)C)C(C)(C)C[C@H](O)C1=O", "note": "[ASTAXANTIN (alone), astaxantin]", "values": [
      {"measurement": "Rel. antiox. activity", "setting": "[1]; astaxantin alone at equal concentration = 1", "value": 1}
    ]},
    {"molecule": "O=c1c(-c2ccc(O)cc2)coc2cc(O)cc(O)c12", "note": "[GENISTEIN (alone), genistein]", "values": [
      {"measurement": "solubility at 24 h", "setting": "[2]", "value": 10, "unit": "µg/mL"},
      {"measurement": "Rel. antiox. activity", "setting": "[1]; genistein alone at equal concentration = 1", "value": 1}
    ]},
    {"molecule": "O=C(O)CCCCC1CCSS1", "note": "(stereo not drawn) [LIPOIC ACID (alone), lipoic acid]", "values": [
      {"measurement": "Rel. antiox. activity", "setting": "[1]; lipoic acid alone at equal concentration = 1", "value": 1}
    ]},
    {"molecule": "CC(C)=CCC/C(C)=C/C=C/C(C)=C/C=C/C(C)=C/C=C/C=C(C)/C=C/C=C(C)/C=C/C=C(\\C)CCC=C(C)C", "note": "[LYCOPENE (alone), lycopene]", "values": [
      {"measurement": "Rel. antiox. activity", "setting": "[1]; lycopene alone at equal concentration = 1", "value": 1}
    ]},
    {"molecule": "Oc1ccc(C=Cc2cc(O)cc(O)c2)cc1", "note": "[RESVERATROL (alone), resveratrol]", "values": [
      {"measurement": "solubility at 24 h", "setting": "[2]; buffered water", "value": 150, "unit": "µg/mL"}
    ]},
    {"molecule": "COC1=C(OC)C(=O)C(C/C=C(\\C)CC/C=C(\\C)CC/C=C(\\C)CC/C=C(\\C)CC/C=C(\\C)CC/C=C(\\C)CC/C=C(\\C)CC/C=C(\\C)CC/C=C(\\C)CCC=C(C)C)=C(C)C1=O", "note": "[UBIDECARENONE (alone), ubidecarenone]", "values": [
      {"measurement": "solubility in water or in aqueous environments", "setting": "[3]", "value": "< 100", "unit": "µg/mL"},
      {"measurement": "solubility at 24 h", "setting": "[2]; buffered water", "value": 2, "unit": "µg/mL"},
      {"measurement": "Relative antiox. activity", "setting": "[1]; ubidecarenone alone at equal concentration = 1", "value": 1}
    ]}
  ]
}
